Each structure is given as a SMILES string.

For assay [1], the target named is T1, Progesterone Receptor PR-B (Homo sapiens, UniProt P06401).
T1 construct: expressed in transfected cells; From own knowledge of the cited Fuhrmann et al. 2000: SK-N-MC cells stably transfected with PR-B and an MMTV-luciferase reporter
T1 sequence (P06401 1-933): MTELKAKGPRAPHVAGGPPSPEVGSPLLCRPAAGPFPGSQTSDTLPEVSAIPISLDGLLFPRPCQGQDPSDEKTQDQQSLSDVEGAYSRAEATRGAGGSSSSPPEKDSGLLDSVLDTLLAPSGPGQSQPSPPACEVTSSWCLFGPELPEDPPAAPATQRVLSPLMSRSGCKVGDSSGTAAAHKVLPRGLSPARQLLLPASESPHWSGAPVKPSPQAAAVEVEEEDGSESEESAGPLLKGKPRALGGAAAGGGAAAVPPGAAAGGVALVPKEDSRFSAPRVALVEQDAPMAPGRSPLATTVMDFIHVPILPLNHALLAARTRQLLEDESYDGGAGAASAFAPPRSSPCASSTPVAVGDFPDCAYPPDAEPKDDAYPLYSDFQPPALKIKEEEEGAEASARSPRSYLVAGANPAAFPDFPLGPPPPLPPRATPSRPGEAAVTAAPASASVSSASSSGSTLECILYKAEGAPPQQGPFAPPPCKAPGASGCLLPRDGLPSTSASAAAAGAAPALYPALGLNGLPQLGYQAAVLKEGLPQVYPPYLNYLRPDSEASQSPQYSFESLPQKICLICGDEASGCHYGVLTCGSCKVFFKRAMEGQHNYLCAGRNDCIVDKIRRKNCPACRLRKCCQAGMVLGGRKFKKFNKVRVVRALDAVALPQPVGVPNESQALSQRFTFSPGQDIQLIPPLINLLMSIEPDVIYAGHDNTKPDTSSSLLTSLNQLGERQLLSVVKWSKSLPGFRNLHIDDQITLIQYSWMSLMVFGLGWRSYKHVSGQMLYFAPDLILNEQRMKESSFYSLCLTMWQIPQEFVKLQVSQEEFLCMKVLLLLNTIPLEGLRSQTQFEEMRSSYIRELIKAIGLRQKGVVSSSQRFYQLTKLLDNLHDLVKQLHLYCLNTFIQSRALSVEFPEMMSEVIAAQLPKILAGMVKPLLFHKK
Kind of assay: Antagonism of Progesterone Receptor PR-B, transactivation assay. Particulars: PR-B transactivation assay as in WO 02/054064; for IC50: read-out: Antagonistic activity IC50. The assay is classed as cell-based. Here is the method:
Antagonism of Progesterone Receptor PR-B
The transactivation assay is performed as described in WO 02/054064.

For assay [2], the target named is T1, Progesterone Receptor PR-B. Kind of assay: Agonism of Progesterone Receptor PR-B, transactivation assay. The class given is cell-based. The conditions noted are these: PR-B transactivation assay as in Fuhrmann et al. As for the experimental part:
Agonism of Progesterone Receptor PR-B
The transactivation assay is performed as described in Fuhrmann et al. (Fuhrmann, U.; Hess-Stump, H.; Cleve, A.; Neef, G.; Schwede, W.; Hoffmann, J.; Fritzemeier, K.-H., Chwalisz, K.; Journal of Medicinal Chem., 43, 26, 2000, 5010-5016).

Regarding `O=C1OCc2cc(NC(=O)C(O)(C#Cc3ccc(O)cc3)CC3(c4cc(C(F)(F)F)ccc4F)CC3)ccc21` (racemic) [Example 7, rac-5-{2-Hydroxy-2-[(4-hydroxyphenyl)ethinyl]-3-[1-(2-fluoro-5-trifluoromethylphenyl)-cyclopropyl]-propionylamino}phthalide], in assay [1], the “Antagonistic activity Efficacy” value was 82% and the IC50 (usually the midpoint of a concentration-inhibition curve) came to 4 nM. Besides, the “Agonistic activity Efficacy” value in assay [2] is recorded as 11%. Moreover, the EC50 – broadly, the concentration needed to bring the measured effect to its halfway point – in assay [2] (read-out: Agonistic activity EC50) was found to be 2 nM.
Take `CCCC#CC(O)(CC1(c2cc(C(F)(F)F)ccc2F)CC1)C(=O)Nc1ccc2c(c1)COC2=O` (racemic) [Example 9, rac-5-{2-Hydroxy-3-[1-(2-fluoro-5-trifluoromethylphenyl)-cyclopropyl]-2-(pentin-1-yl)-propionylamino}phthalide]: in assay [1], the “Antagonistic activity Efficacy” value was found to be 96% and the IC50 came out at 3 nM. In addition, the “Agonistic activity Efficacy” value in assay [2] came to 3%.
The like results for `O=C1OCc2cc(NC(=O)C(O)(C#CCO)CC3(c4cc(C(F)(F)F)ccc4F)CC3)ccc21` (racemic) [Example 13, rac-5-{2-Hydroxy-3-[1-(2-fluoro-5-trifluoromethylphenyl)-cyclopropyl]-2-[(3-hydroxy)propin-1-yl]-propionylamino}phthalide] were, in that order, 92%, 3 nM and 7%.
In the case of `O=C1OCc2cc(NC(=O)C(O)(C#Cc3ccccc3)CC3(c4cc(C(F)(F)F)ccc4F)CC3)ccc21` (single isomer, unassigned; (-)) [Example 3b, (−)-5-{2-Hydroxy-3-[1-(2-fluoro-5-trifluoromethylphenyl)-cyclopropyl]-2-(phenylethinyl)-propionylamino}phthalide], in assay [1], the “Antagonistic activity Efficacy” value is recorded as 97% and the IC50 turned out to be 0.4 nM. Moreover, the “Agonistic activity Efficacy” value in assay [2] is listed as 2%.

Values taken from patent publication US7408060B2, “Nonsteroidal progesterone receptor modulators” (Schering AG, priority 2005, dated 2008).
